Molecules are shown by their SMILES. Where two headings read alike, the source gives them in different places. A value given as a limit tells only on which side of the number the result lay.

Experiment [1] concerns the target T1, hDAT (Homo sapiens, UniProt Q01959). Kind of experiment: Inhibition of [3H]DA uptake, intact HEK-hDAT cells. The class given is cell-based.
For experiment [2], the target named is T2, h5-HT2A receptor (Homo sapiens, UniProt P28223). Kind of experiment: [125I]DOI binding, HEK-h5-HT2A.
T2 sequence (P28223 whole entry): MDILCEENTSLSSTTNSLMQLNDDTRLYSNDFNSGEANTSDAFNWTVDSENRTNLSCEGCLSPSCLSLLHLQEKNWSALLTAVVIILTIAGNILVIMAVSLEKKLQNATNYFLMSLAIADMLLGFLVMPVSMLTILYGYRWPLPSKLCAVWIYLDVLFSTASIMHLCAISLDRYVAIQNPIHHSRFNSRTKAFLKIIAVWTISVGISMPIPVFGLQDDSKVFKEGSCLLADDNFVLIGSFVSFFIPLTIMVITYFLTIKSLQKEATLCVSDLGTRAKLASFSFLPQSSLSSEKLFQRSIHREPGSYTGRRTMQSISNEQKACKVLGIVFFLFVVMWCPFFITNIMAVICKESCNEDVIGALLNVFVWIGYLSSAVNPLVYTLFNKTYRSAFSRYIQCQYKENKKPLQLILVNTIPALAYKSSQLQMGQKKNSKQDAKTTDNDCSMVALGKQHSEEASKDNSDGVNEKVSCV
Experiment [3] concerns the target T3, hSigma1 receptor (Homo sapiens, UniProt Q99720). Kind of experiment: [3H]. The class given is binding. The conditions noted are these: Inhibition of [3H]pentazocine binding Ki ± sem, hSigma1.
For experiment [4], the target named is T4, hSERT (Homo sapiens, UniProt P31645). Kind of experiment: Superfusion release of preloaded [3H]5-HT from HEK-hSERT cells. Format: cell-based.
T4 sequence (P31645 whole entry, the tested form may be a part): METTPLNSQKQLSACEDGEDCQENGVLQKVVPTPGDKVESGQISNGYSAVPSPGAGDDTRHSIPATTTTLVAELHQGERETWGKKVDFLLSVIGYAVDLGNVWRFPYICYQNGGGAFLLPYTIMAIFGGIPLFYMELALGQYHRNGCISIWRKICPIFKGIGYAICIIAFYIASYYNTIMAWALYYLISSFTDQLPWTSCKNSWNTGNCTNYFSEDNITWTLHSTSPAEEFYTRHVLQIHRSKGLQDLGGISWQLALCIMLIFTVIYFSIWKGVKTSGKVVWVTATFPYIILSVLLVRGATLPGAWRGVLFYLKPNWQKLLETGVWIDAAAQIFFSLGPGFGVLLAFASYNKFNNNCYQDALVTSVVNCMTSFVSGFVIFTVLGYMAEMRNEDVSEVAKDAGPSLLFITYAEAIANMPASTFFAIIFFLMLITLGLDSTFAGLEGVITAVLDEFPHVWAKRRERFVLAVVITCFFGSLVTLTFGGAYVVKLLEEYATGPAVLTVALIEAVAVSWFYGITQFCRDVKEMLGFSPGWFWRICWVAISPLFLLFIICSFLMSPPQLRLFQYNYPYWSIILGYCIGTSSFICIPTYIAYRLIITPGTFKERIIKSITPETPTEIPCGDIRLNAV
Experiment [5] has as its target T5, hNET (Homo sapiens, UniProt P23975). Kind of experiment: Superfusion release of preloaded [3H]NE from HEK-hNET cells. Format: cell-based.
The target in experiment [6] is T6, h5-HT2C receptor (Homo sapiens, UniProt P28335).
T6 sequence (P28335 33-458): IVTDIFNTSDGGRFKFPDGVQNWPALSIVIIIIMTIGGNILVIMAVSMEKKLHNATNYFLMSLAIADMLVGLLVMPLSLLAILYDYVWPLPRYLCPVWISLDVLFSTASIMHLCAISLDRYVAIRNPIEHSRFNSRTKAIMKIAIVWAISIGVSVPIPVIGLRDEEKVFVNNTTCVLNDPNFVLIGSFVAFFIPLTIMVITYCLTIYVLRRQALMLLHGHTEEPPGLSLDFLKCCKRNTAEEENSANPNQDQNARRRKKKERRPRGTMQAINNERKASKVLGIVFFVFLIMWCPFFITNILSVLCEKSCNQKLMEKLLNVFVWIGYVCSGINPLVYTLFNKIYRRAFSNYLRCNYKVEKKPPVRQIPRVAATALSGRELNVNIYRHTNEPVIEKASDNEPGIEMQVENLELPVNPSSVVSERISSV
Kind of experiment: Inhibition of 5-HT-stimulated IP-1 formation. Format: cell-based.

For experiment [7], the target named is T2, h5-HT2A receptor. The conditions noted are these: data not shown.
Experiment [8] addresses T4, hSERT. Kind of experiment: Inhibition of [125I]RTI-55 binding, HEK-hSERT membranes.
Experiment [9] deals with T3, hSigma1 receptor. The following applies: read-out: hSigma1 Ki, published value; ref Lee et al., 2008; cited from earlier work.
Experiment [10] deals with T5, hNET. Kind of experiment: biochemical. Format: binding.
A further experiment has as its target human DA D1 receptor (Homo sapiens, UniProt P21728). Kind of experiment: [3H]SCH23390 binding, LhD1 cells. The following applies: test drugs up to the maximal concentration tested (10 µM).
Experiment [11] has as its target T2, h5-HT2A receptor. Kind of experiment: Inhibition of 5-HT-stimulated IP-1 formation. The class given is cell-based.
The target in experiment [12] is T1, hDAT. Kind of experiment: Inhibition of [125I]RTI-55 binding, HEK-hDAT membranes.
Experiment [13] addresses T7, h5-HT1A receptor (Homo sapiens, UniProt P08908).
T7 sequence (P08908 1-422): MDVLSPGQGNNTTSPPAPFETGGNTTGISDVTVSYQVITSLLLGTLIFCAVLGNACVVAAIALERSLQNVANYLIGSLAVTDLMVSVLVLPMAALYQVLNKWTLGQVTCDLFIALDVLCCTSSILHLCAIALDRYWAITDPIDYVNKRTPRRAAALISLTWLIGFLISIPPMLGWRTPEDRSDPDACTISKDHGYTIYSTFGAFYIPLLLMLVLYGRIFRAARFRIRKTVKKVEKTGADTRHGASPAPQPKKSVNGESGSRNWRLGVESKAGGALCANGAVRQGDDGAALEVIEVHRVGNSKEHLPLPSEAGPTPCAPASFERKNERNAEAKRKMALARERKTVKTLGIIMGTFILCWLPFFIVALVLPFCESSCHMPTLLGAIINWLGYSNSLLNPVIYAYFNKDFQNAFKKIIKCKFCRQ
Kind of experiment: Stimulation of [35S]GTPγS binding, HEK-h5-HT1A membranes. The class given is biochemical. In general terms: Binding of GTPγS marks nucleotide exchange on a G protein.

In the next experiment the target is human DA D2 receptor (Homo sapiens, UniProt P14416). The class given is binding. The conditions noted are these: test drugs up to the maximal concentration tested (10 µM).
Sequence of human DA D2 receptor (P14416 whole entry): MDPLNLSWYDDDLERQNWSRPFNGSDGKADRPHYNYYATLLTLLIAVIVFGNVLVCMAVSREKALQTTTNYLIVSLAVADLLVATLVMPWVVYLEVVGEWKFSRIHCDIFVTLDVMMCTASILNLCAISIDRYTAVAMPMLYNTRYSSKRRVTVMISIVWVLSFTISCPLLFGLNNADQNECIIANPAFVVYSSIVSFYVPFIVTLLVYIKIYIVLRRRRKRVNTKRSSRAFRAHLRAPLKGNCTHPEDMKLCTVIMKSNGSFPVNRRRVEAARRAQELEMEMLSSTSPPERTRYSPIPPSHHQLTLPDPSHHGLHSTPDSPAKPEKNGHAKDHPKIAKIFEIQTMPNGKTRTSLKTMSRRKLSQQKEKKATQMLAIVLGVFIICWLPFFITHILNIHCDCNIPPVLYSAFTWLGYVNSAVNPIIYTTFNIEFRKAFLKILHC
The target in a further experiment is human DA D3 receptor (Homo sapiens, UniProt P35462). Kind of experiment: [3H]YM-09151-2 binding, CHOp-D3 cells. The conditions noted are these: test drugs up to 10 µM; words give concentration range, 'low' = low nanomolar.
Sequence of human DA D3 receptor (P35462 whole entry, the tested form may be a part): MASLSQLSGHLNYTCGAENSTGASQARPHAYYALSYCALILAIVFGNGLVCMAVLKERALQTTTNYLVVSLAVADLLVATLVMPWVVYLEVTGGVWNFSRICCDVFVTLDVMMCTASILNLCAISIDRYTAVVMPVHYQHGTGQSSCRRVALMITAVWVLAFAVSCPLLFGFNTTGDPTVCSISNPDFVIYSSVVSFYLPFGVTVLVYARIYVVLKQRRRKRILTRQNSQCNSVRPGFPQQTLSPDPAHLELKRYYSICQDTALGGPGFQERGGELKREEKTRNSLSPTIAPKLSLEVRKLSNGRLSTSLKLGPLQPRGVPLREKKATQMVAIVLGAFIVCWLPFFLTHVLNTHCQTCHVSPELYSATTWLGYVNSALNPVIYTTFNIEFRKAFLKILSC
Experiment [14] addresses T1, hDAT. Kind of experiment: Superfusion release of preloaded [3H]DA from HEK-hDAT cells. The class given is cell-based.
For experiment [15], the target named is T8, hVMAT2 (Homo sapiens, UniProt Q05940). Kind of experiment: Inhibition of [3H]DHTB binding, HEK-hVMAT2 membranes.
T8 sequence (Q05940 whole entry): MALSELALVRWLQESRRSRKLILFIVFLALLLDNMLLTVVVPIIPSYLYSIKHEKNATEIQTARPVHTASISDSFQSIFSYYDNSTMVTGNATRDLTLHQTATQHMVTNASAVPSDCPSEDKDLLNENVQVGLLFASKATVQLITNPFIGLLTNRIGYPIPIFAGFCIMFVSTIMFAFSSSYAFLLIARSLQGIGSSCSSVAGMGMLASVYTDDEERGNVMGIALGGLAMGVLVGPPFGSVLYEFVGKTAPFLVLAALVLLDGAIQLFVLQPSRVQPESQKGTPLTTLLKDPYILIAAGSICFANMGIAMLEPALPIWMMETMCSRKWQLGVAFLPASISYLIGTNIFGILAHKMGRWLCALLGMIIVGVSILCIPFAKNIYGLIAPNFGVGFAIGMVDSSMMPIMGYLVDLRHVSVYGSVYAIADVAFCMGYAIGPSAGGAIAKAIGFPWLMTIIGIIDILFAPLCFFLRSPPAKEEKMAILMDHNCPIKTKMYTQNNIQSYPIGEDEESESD
Experiment [16] has as its target T5, hNET. Kind of experiment: cell-based. Format: cell-based.
Experiment [17] addresses T8, hVMAT2. Kind of experiment: Superfusion release of preloaded [3H]NE from HEK-hVMAT2 cells. Format: cell-based.
The target of a further experiment is T9, human D4.4 receptor (Homo sapiens, UniProt P21917).
T9 sequence (P21917 1-419): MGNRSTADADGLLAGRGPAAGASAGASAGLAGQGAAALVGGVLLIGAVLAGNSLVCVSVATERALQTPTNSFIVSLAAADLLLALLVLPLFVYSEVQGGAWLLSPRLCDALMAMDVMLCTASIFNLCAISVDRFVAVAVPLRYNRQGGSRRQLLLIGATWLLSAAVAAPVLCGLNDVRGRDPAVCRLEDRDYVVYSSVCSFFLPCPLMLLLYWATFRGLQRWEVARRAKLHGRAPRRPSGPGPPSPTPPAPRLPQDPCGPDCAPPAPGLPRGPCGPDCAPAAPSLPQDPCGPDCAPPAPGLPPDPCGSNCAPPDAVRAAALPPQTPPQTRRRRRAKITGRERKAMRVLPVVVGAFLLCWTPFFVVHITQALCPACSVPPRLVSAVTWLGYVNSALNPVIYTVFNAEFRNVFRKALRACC
Format: binding. The conditions noted are these: test drugs up to 10 µM; words give concentration range, 'low' = low nanomolar.

In experiment [18] the target is T6, h5-HT2C receptor. Kind of experiment: biochemical. Format: binding.
Experiment [19] concerns the target T4, hSERT. Kind of experiment: Inhibition of [3H]5-HT uptake, intact HEK-hSERT cells. Format: cell-based.
In experiment [20] the target is T8, hVMAT2. Kind of experiment: Inhibition of [3H]5-HT uptake, HEK-hVMAT2 membrane preparation. The class given is biochemical.
In experiment [21] the target is T6, h5-HT2C receptor. Format: cell-based. The conditions noted are these: data not shown.
The target in experiment [22] is T7, h5-HT1A receptor. Kind of experiment: [3H]8-OH-DPAT binding, HEK-h5-HT1A.
Experiment [23] deals with T4, hSERT. The conditions noted are these: read-out: Kd of radioligand, HEK-hSERT; ref Eshleman et al., 1999; cited from earlier work.
In experiment [24] the target is T5, hNET. The conditions noted are these: read-out: Kd of radioligand, HEK-hNET; ref Eshleman et al., 1999; cited from earlier work.
Experiment [25] concerns the target T1, hDAT. The following applies: read-out: Kd of radioligand, HEK-hDAT; ref Eshleman et al., 1999; cited from earlier work.

T5 sequence (P23975 whole entry, the tested form may be a part): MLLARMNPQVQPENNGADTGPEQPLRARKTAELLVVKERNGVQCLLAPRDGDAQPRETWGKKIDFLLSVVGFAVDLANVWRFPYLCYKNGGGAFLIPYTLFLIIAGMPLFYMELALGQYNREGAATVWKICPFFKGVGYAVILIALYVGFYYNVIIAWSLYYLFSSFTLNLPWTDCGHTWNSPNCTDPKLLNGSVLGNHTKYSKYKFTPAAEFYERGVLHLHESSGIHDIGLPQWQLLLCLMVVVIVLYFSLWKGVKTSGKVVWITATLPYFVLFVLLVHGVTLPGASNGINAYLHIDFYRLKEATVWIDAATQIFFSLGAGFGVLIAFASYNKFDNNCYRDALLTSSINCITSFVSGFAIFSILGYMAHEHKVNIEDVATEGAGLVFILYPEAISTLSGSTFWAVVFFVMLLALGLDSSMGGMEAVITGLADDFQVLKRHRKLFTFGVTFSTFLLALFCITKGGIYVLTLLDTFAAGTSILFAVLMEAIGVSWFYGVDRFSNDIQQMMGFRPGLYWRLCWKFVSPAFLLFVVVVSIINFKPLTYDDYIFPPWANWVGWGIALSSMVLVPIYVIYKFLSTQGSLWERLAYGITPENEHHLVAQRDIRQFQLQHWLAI
T1 sequence (Q01959 whole entry): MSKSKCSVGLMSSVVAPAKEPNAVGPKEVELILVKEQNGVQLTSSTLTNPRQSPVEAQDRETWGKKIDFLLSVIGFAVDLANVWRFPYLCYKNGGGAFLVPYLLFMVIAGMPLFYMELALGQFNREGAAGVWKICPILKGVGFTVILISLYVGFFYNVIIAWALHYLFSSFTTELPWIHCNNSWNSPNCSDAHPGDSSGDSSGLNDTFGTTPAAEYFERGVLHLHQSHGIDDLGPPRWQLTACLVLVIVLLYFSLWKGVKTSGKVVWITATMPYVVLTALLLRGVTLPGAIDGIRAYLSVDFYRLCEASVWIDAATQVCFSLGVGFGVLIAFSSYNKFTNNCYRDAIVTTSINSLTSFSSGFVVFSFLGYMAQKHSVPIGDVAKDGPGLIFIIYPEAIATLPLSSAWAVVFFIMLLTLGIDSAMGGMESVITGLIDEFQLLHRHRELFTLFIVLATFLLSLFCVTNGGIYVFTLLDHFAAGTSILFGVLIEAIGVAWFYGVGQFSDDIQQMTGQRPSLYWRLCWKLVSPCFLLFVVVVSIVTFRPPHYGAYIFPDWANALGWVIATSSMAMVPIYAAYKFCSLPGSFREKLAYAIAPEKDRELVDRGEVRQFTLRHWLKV
T3 sequence (Q99720 whole entry, the tested form may be a part): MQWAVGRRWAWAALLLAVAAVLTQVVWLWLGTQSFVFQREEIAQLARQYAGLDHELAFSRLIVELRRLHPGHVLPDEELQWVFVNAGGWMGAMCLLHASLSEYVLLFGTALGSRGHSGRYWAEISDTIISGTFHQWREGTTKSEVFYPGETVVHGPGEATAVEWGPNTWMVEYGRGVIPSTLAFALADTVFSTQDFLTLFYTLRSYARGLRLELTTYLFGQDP
Sequence of human DA D1 receptor (P21728 whole entry): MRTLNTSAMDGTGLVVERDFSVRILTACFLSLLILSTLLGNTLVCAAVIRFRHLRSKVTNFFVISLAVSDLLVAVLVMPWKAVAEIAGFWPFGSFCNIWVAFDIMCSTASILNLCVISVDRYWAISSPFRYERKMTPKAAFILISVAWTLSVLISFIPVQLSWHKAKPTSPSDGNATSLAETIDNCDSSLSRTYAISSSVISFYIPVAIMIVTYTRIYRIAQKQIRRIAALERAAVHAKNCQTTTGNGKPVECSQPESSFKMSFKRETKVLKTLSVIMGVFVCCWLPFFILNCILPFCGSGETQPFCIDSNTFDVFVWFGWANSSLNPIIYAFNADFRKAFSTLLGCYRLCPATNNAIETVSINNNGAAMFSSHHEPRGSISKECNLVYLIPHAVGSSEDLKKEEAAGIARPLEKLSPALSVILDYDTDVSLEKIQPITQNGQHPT

What is called IC50 is the concentration that gives 50% inhibition. A word on the Ki: it is a measure of affinity in units of concentration, obtained from inhibition or displacement. As a reminder, the EC50 is the midpoint of the concentration-response curve. As for `CN[C@@H](C)Cc1ccccc1` [METH, (+)methamphetamine, reference compound], the IC50 at hDAT [1] was 0.026 ± 0.01 µM; on h5-HT2C receptor [6], over 1000 µM; against h5-HT2A receptor [11] it was 112 ± 12 µM; at hNET [16], 0.026 ± 0.0077 µM; at hSERT [19], 4.1 ± 1.3 µM; on hVMAT2 [20], 4.72 ± 0.61 µM. Moreover, the “ratio of binding Ki to uptake IC50, hDAT” value on hDAT [1] ([125I]RTI-55 Ki / [3H]DA uptake IC50) turned out to be 152. In addition, the Ki on h5-HT2A receptor [2] was 43.5 ± 9.1 µM; on hSigma1 receptor [3], 3.18 ± 0.74 µM; at hSERT [8], 241 ± 8.9 µM; on hSigma1 receptor [9] it was 5.2 µM; on hNET [10], 1.39 ± 0.12 µM; on hDAT [12] it was 3.96 ± 0.92 µM. Further, the Ki is 920 ± 110 µM on hVMAT2 [15], 10.2 ± 2.9 µM on h5-HT2C receptor [18] and 5.9 ± 0.85 µM on h5-HT1A receptor [22]. At hSERT [4], the “% maximum release ± sem, hSERT [3H]5-HT” value stood at 97.6 ± 7.2%. Moreover, the EC50 is 22.4 ± 0.24 µM at hSERT [4]; 0.128 ± 0.036 µM at hNET [5]; 18.1 ± 4.2 µM on h5-HT1A receptor [13]; 0.4 ± 0.12 µM at hDAT [14]; 79 ± 29 µM on hVMAT2 [17]. Moreover, at hSERT [4] (EC50 compared to PCA), the “fold less potent than PCA to induce [3H]5-HT release” value was found to be 28 fold. For the same compound, at hNET [5] (relative to maximal AUC induced by METH (0.3 or 1 µM)), the “% maximum release ± sem, hNET [3H]NE” value is listed as 92.7 ± 5.2%. Besides, the “h5-HT2C Inhibition of 5-HT-stimulated IP-1 formation % maximum inhibition ± sem” value on h5-HT2C receptor [6] (100 nM 5-HT, normalized to maximal inhibition by SB242084 (1 µM)) is on record as under 3%. The “h5-HT2A agonist activity, inositol monophosphate” value on h5-HT2A receptor [7] is reported as “partial agonist activity at millimolar concentrations”. The “affinity for the [3H]SCH23390 binding site, DA D1 receptor” value on human DA D1 receptor was “no measurable affinity”. For the same compound, at h5-HT2A receptor [11] (100 nM 5-HT, normalized to maximal inhibition by ketanserin (10 µM)), the “h5-HT2A Inhibition of 5-HT-stimulated IP-1 formation % maximum inhibition ± sem” value came out at 100.0 ± 0.0%. Further, on h5-HT1A receptor [13] (read-out: h5-HT1A Stimulation of [35S]GTPγS binding % maximum stimulation ± sem), the Emax was 66%. Also, on human DA D2 receptor, the “affinity for the [3H]YM-09151-2 binding site, DA D2 receptor” value is reported as “no measurable affinity”. Besides, the “affinity for the [3H]YM-09151-2 binding site, DA D3 receptor” value on human DA D3 receptor is given as “no measurable affinity”. At hDAT [14] (relative to maximal AUC induced by METH (1 or 10 µM)), the “% maximum release ± sem, hDAT [3H]DA” value is recorded as 101.9 ± 4.9%. Besides, on hNET [16], the “ratio of binding Ki to uptake IC50, hNET” value is recorded as 53. In addition, the “Release of [3H]NE % maximum release ± sem or range, hVMAT2” value at hVMAT2 [17] came out at 95.5 ± 2.1%. Moreover, the “affinity for the [3H]YM-09151-2 binding site, DA D4.4 receptor” value on human D4.4 receptor is listed as “no measurable affinity”. Further, the “ratio of binding Ki to uptake IC50, hSERT” value on hSERT [19] ([125I]RTI-55 Ki / [3H]5-HT uptake IC50) is on record as 59. Further, the “h5-HT2C agonist activity, inositol monophosphate” value at h5-HT2C receptor [21] is “partial agonists with midmicromolar potencies”.

What is called Kd is a measure of binding affinity in units of concentration. On to `COC(=O)[C@H]1[C@@H](c2ccc(I)cc2)C[C@@H]2CC[C@H]1N2C` [[^125I]RTI-55], for which the Kd on hSERT [23] is 0.00098 ± 0.00016 µM; on hNET [24], 0.0121 ± 0.0019 µM; at hDAT [25] it was 0.00183 ± 0.00021 µM.

The values are drawn from paper PMC3692398 (Biochemical pharmacology, 2013).
